Assay results as given in patent US20170143748A1, “ANTI-TUMOR PHARMACEUTICAL APPLICATION OF PENTACYCLIC TRITERPENE SAPONIN COMPOUNDS OF SZECHUAN MELANDIUM ROOT” (priority 2014, published 2017).
“And” between values parts separate entries of the source, which are not always exact repeats. Identical values can stand only once.

Experiments:
HepG2 human heptoma = experiment: Anti-HepG2 human heptoma in BALB/c (nu/nu) nude mice; conditions: for body weight of HepG2-bearing nude mice / tumor volume of HepG2-bearing nude mice: mg/kg BW: total saponins 1.5, Compound 1, combination 1 & 39, Cytoxan 40, Sc
Procedure: 70 male BALB/c (nu/nu) nude mice (18-20 g, License NO. SCXK (BJ) 2009-0017, National Institutes for Food and Drug Control.) were adaptively bred for one week, and then used in the following experiment.
Human resources hepatoma cell line HepG2 was cultured in RPMI-1640 medium containing 100 U/mL Penicillin and 100 μg/mL Streptomycin with 10% fetal bovine serum and maintained at 37° C. in a humidified atmosphere (5% CO2 and […]).
70 BALB/c (nu/nu) nude mice were adaptively bred for 1 week, HepG2 cells were inoculated subcutaneously into the back of nude mice, 1×10^7 cells per mouse. […] 3 days after inoculation, mice of every therapeutic group were all given the relevant compounds or drugs for 3 weeks, and others were given isodose physiological saline.
The body weight and the size of tumor were measured and recorded weekly. The tumor volume was calculated with the formula below:
tumor volume V=π/6×a×b^2 (a, b means the transverse and longitudinal length of tumor)
At the end of administration, mice were fastened for 8 hours, weighed the fasting body weight, dropped off eyeball to collect blood, centrifuged and collected serum for next experiment. The tumors were departed and weighed. Tumor Index and inhibition rate were calculated as below:
Tumor Index=Tumor mass (mg)/body weight of animal (g)
Inhibition rate=(Average tumor massControl group−Average tumor massadministration group)/Average tumor massControl group×100%
Mice in the model group were injected with sterile water (10 ml/kg BW), Sc. All the animals were treated at 9 am for 3 weeks.
Determination of body weights: Body weights of animals were weighed and recorded once a week.
Tumor measurement: The transverse and longitudinal lengths of tumor were measured with vernier caliper weekly.
End of the experiment: After mice being administrated for 3 weeks (21 days), the experiment was terminated.

HT29 human colon cancer = experiment: Anti-HT29 human colon cancer in BALB/c (nu/nu) nude mice; assay type: in vivo; conditions: for body weight of HT29-bearing nude mice / tumor volume of HT29-bearing nude mice: mg/kg BW: total saponins 1.5, Compound 1, combination 1 & 19, PTX 20, Sc
Procedure: Human resources Colon cancer cell line HT29 was cultured in the same condition as the experiment 4. […] Mice were randomly assigned into 7 groups: […] The body weight and the tumor volume were measured and recorded weekly. The tumor volume was calculated according to the formula below. […] The tumors were departed and weighed.

[1] = test system: BGC823 human gastric adenocarcinoma; experiment: Anti-BGC823 human gastric adenocarcinoma in BALB/c (nu/nu) nude mice; assay type: in vivo; conditions: for body weight of BGC823-bearing nude mice / tumor volume of BGC823-bearing nude mice: mg/kg BW: total saponins 1.5, Compound 1, combination 1 & 19, 5-FU 20, Sc; for body weight of BGC823-bearing nude mice: in g (unit assumed)
Procedure: Human resources gastric adenocarcinoma cell line BGC823 was cultured in the same condition as the experiment 4.
The body weight and the tumor volume were measured and recorded weekly. The tumor volume was calculated according to the formula below.
Tumors were departed and weighed. Tumor Index and inhibition rate were calculated as below: […]

COC(=O)C1CC(O[C@H]2CC[C@]3(C)[C@H]4C=CC5[C@@H]6CC(C)(C)CC[C@]6(C(=O)OC6OC(C)C(OC(=O)/C=C/c7ccc(C)cc7)C(OC(C)=O)C6OC6CC(C)C(O)C(O)C6O)[C@H](O)C[C@@]5(C)[C@]4(C)CC[C@H]3[C@]2(C)C=O)C(OC2OC(CO)C(O)C(O)C2O)C(OC2OCC(O)C(O)C2O)C1O (some centres unmarked) [Compound (2), sinocrassuloside VII]
body weight of HepG2-bearing nude mice (HepG2 human heptoma; 0 W): 19.50 ± 0.53 | body weight of HepG2-bearing nude mice (HepG2 human heptoma; 1 W): 21.60 ± 0.84 | tumor volume of HepG2-bearing nude mice (HepG2 human heptoma; 1 W): 564.84 ± 474.95 | body weight of HepG2-bearing nude mice (HepG2 human heptoma; 2 W): 22.40 ± 1.17 | tumor volume of HepG2-bearing nude mice (HepG2 human heptoma; 2 W): 841.36 ± 577.72 | body weight of HepG2-bearing nude mice (HepG2 human heptoma; 3 W): 22.70 ± 0.95 | tumor volume of HepG2-bearing nude mice (HepG2 human heptoma; 3 W): 911.76 ± 460.22 | Inhibition rate (HepG2 human heptoma; HepG2-bearing nude mice, after 3 weeks, from average tumor mass vs model): 87.42% and 87.32% | body weight of HT29-bearing nude mice (HT29 human colon cancer; 0 W): 20.10 ± 1.35 | body weight of HT29-bearing nude mice (HT29 human colon cancer; 1 W): 22.10 ± 0.90 | tumor volume of HT29-bearing nude mice (HT29 human colon cancer; 1 W): 639.16 ± 539.16 | body weight of HT29-bearing nude mice (HT29 human colon cancer; 2 W): 22.90 ± 0.90 | tumor volume of HT29-bearing nude mice (HT29 human colon cancer; 2 W): 918.54 ± 469.16 | body weight of HT29-bearing nude mice (HT29 human colon cancer; 3 W): 22.70 ± 1.38 | tumor volume of HT29-bearing nude mice (HT29 human colon cancer; 3 W): 859.24 ± 691.16 | Inhibition rate (HT29 human colon cancer; HT29-bearing nude mice, after 3 weeks, from average tumor mass vs model): 54.87% | body weight of BGC823-bearing nude mice ([1]; 0 W): 20.10 ± 1.10 | tumor volume of BGC823-bearing nude mice ([1]; 1 W): 796.43 ± 563.35 | tumor volume of BGC823-bearing nude mice ([1]; 2 W): 1186.34 ± 625.68 | body weight of BGC823-bearing nude mice ([1]; 2 W): 23.00 ± 0.82 | tumor volume of BGC823-bearing nude mice ([1]; 3 W): 1654.23 ± 891.57 | body weight of BGC823-bearing nude mice ([1]; 3 W): 23.40 ± 1.58 | Inhibition rate ([1]; BGC823-bearing nude mice, after 3 weeks, from average tumor mass vs model): 79.63%
